Laboratory results published in patent US20080051387A1, “TETRAHYDROPYRIDO[3,4-D]PYRIMIDINES AND RELATED ANALOGUES” (priority 2006, published 2008).

Each compound was assayed against T1, chimeric human H3 receptor (Homo sapiens, UniProt Q9Y5N1) (assay: Chimeric human H3 receptor screening GTP binding assay (inhibition of histamine-stimulated GTP-gamma35S binding, Example 8)). Conditions: 1 h; assay of Example 8; symbol "!" in column headed Ki; read-out: percent inhibition of agonist-induced GTP-gammaS binding to H3.
T1 construct: rat Galpha-i2 (Gnai2, rat); made in house; host or cells: Sf9 insect cells (baculovirus); P2 membranes
T1 sequence (Q9Y5N1 with tags, fused parts or gaps): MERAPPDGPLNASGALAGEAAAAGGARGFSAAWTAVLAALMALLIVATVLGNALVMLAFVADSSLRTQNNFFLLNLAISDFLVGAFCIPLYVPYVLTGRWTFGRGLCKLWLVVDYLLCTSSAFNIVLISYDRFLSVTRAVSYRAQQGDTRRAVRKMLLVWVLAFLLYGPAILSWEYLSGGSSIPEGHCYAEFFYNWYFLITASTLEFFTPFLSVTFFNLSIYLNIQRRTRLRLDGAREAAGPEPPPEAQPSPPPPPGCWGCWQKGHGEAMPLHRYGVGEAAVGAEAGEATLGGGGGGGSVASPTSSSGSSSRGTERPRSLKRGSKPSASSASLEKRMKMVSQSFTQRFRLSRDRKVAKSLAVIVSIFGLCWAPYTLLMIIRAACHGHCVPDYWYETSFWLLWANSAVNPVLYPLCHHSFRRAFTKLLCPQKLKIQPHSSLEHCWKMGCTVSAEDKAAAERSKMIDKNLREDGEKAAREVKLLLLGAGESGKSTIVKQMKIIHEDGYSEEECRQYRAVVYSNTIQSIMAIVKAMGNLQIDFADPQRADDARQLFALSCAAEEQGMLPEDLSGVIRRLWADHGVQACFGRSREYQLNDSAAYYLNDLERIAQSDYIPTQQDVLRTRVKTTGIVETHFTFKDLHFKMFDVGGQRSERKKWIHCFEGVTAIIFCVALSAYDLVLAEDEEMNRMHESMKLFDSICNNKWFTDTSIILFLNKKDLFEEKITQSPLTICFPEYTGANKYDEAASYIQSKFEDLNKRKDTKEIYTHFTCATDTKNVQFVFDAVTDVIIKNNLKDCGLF
Type: biochemical
How it was run: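 Sf9 membranes co-expressing chimeric human H3 receptor and heterotrimeric G-protein (35 μg protein) incubated 60 min at room temperature with 4 μM compound, 1 μM histamine and 125 pM GTP-gamma35S in pH 7.4 buffer with 10 μM GDP. Filter-bound radioactivity, nonspecific (10 μM GTP-gammaS) subtracted, reported as % inhibition of histamine signal.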

Inhibition at 4 µM, ≥ 90%:
CCC(=O)N1CCc2cnc(N3CCN(C4CCC4)CC3)nc2CC1 [Compound 184, 2-(4-cyclobutylpiperazin-1-yl)-7-propionyl-6,7,8,9-tetrahydro-5H-pyrimido[4,5-d]azepine]
CC(=O)c1ccc(N2CCc3cnc(N4CCN(C5CCC5)CC4)nc3CC2)nc1 [Compound 185, 1-{6-[2-(4-cyclobutylpiperazin-1-yl)-5,6,8,9-tetrahydro-7H-pyrimido[4,5-d]azepin-7-yl]pyridin-3-yl}ethanone]
CNC(=O)c1ccc(N2CCc3cnc(N4CCN(C5CCC5)CC4)nc3CC2)nc1 [Compound 186, 6-[2-(4-cyclobutylpiperazin-1-yl)-5,6,8,9-tetrahydro-7H-pyrimido[4,5-d]azepin-7-yl]-N-methylnicotinamide]
Cc1cccc(C(=O)N2CCc3cnc(N4CCN(C5CCC5)CC4)nc3CC2)c1 [Compound 187, 2-(4-cyclobutylpiperazin-1-yl)-7-(3-methylbenzoyl)-6,7,8,9-tetrahydro-5H-pyrimido[4,5-d]azepine]
Cc1ccc(C(=O)N2CCc3cnc(N4CCN(C5CCC5)CC4)nc3CC2)cc1 [Compound 188, 2-(4-cyclobutylpiperazin-1-yl)-7-(4-methylbenzoyl)-6,7,8,9-tetrahydro-5H-pyrimido[4,5-d]azepine]
Cc1ccccc1C(=O)N1CCc2cnc(N3CCN(C4CCC4)CC3)nc2CC1 [Compound 189, 2-(4-cyclobutylpiperazin-1-yl)-7-(2-methylbenzoyl)-6,7,8,9-tetrahydro-5H-pyrimido[4,5-d]azepine]
COc1cccc(C(=O)N2CCc3cnc(N4CCN(C5CCC5)CC4)nc3CC2)c1 [Compound 190, 2-(4-cyclobutylpiperazin-1-yl)-7-(3-methoxybenzoyl)-6,7,8,9-tetrahydro-5H-pyrimido[4,5-d]azepine]
COc1ccc(C(=O)N2CCc3cnc(N4CCN(C5CCC5)CC4)nc3CC2)cc1 [Compound 191, 2-(4-cyclobutylpiperazin-1-yl)-7-(4-methoxybenzoyl)-6,7,8,9-tetrahydro-5H-pyrimido[4,5-d]azepine]
COc1ccccc1C(=O)N1CCc2cnc(N3CCN(C4CCC4)CC3)nc2CC1 [Compound 192, 2-(4-cyclobutylpiperazin-1-yl)-7-(2-methoxybenzoyl)-6,7,8,9-tetrahydro-5H-pyrimido[4,5-d]azepine]
O=C(c1cccc(F)c1)N1CCc2cnc(N3CCN(C4CCC4)CC3)nc2CC1 [Compound 193, 2-(4-cyclobutylpiperazin-1-yl)-7-(3-fluorobenzoyl)-6,7,8,9-tetrahydro-5H-pyrimido[4,5-d]azepine]
O=C(c1ccc(F)cc1)N1CCc2cnc(N3CCN(C4CCC4)CC3)nc2CC1 [Compound 194, 2-(4-cyclobutylpiperazin-1-yl)-7-(4-fluorobenzoyl)-6,7,8,9-tetrahydro-5H-pyrimido[4,5-d]azepine]
O=C(c1ccccc1F)N1CCc2cnc(N3CCN(C4CCC4)CC3)nc2CC1 [Compound 195, 2-(4-cyclobutylpiperazin-1-yl)-7-(2-fluorobenzoyl)-6,7,8,9-tetrahydro-5H-pyrimido[4,5-d]azepine]
O=C(c1ccco1)N1CCc2cnc(N3CCN(C4CCC4)CC3)nc2CC1 [Compound 196, 2-(4-cyclobutylpiperazin-1-yl)-7-(2-furoyl)-6,7,8,9-tetrahydro-5H-pyrimido[4,5-d]azepine]
O=C(c1ccoc1)N1CCc2cnc(N3CCN(C4CCC4)CC3)nc2CC1 [Compound 197, 2-(4-cyclobutylpiperazin-1-yl)-7-(3-furoyl)-6,7,8,9-tetrahydro-5H-pyrimido[4,5-d]azepine]
O=C(c1cccnc1)N1CCc2cnc(N3CCN(C4CCC4)CC3)nc2CC1 [Compound 198, 2-(4-cyclobutylpiperazin-1-yl)-7-(pyridin-3-ylcarbonyl)-6,7,8,9-tetrahydro-5H-pyrimido[4,5-d]azepine]
O=C(c1ccccn1)N1CCc2cnc(N3CCN(C4CCC4)CC3)nc2CC1 [Compound 199, 2-(4-cyclobutylpiperazin-1-yl)-7-(pyridin-2-ylcarbonyl)-6,7,8,9-tetrahydro-5H-pyrimido[4,5-d]azepine]
O=C(c1ccno1)N1CCc2cnc(N3CCN(C4CCC4)CC3)nc2CC1 [Compound 200, 2-(4-cyclobutylpiperazin-1-yl)-7-(isoxazol-5-ylcarbonyl)-6,7,8,9-tetrahydro-5H-pyrimido[4,5-d]azepine]
Cc1noc(C)c1C(=O)N1CCc2cnc(N3CCN(C4CCC4)CC3)nc2CC1 [Compound 201, 2-(4-cyclobutylpiperazin-1-yl)-7-[(3,5-dimethylisoxazol-4-yl)carbonyl]-6,7,8,9-tetrahydro-5H-pyrimido[4,5-d]azepine]
Cc1ncccc1C(=O)N1CCc2cnc(N3CCN(C4CCC4)CC3)nc2CC1 [Compound 202, 2-(4-cyclobutylpiperazin-1-yl)-7-[(2-methylpyridin-3-yl)carbonyl]-6,7,8,9-tetrahydro-5H-pyrimido[4,5-d]azepine]
Cc1cc(C(=O)N2CCc3cnc(N4CCN(C5CCC5)CC4)nc3CC2)nn1C [Compound 203, 2-(4-cyclobutylpiperazin-1-yl)-7-[(1,5-dimethyl-1H-pyrazol-3-yl)carbonyl]-6,7,8,9-tetrahydro-5H-pyrimido[4,5-d]azepine]
CCn1nc(C)cc1C(=O)N1CCc2cnc(N3CCN(C4CCC4)CC3)nc2CC1 [Compound 204, 2-(4-cyclobutylpiperazin-1-yl)-7-[(1-ethyl-3-methyl-1H-pyrazol-5-yl)carbonyl]-6,7,8,9-tetrahydro-5H-pyrimido[4,5-d]azepine]
CC(C)c1ccc(C(=O)N2CCc3cnc(N4CCN(C5CCC5)CC4)nc3CC2)cc1 [Compound 205, 2-(4-cyclobutylpiperazin-1-yl)-7-(4-isopropylbenzoyl)-6,7,8,9-tetrahydro-5H-pyrimido[4,5-d]azepine]
CCCC(=O)N1CCc2cnc(N3CCN(C4CCC4)CC3)nc2CC1 [Compound 206, 7-butyryl-2-(4-cyclobutylpiperazin-1-yl)-6,7,8,9-tetrahydro-5H-pyrimido[4,5-d]azepine]
CCCCC(=O)N1CCc2cnc(N3CCN(C4CCC4)CC3)nc2CC1 [Compound 207, 2-(4-cyclobutylpiperazin-1-yl)-7-pentanoyl-6,7,8,9-tetrahydro-5H-pyrimido[4,5-d]azepine]
CC(C)CC(=O)N1CCc2cnc(N3CCN(C4CCC4)CC3)nc2CC1 [Compound 208, 2-(4-cyclobutylpiperazin-1-yl)-7-(3-methylbutanoyl)-6,7,8,9-tetrahydro-5H-pyrimido[4,5-d]azepine]
CC(C)CCC(=O)N1CCc2cnc(N3CCN(C4CCC4)CC3)nc2CC1 [Compound 209, 2-(4-cyclobutylpiperazin-1-yl)-7-(4-methylpentanoyl)-6,7,8,9-tetrahydro-5H-pyrimido[4,5-d]azepine]
O=C(CC1CCCC1)N1CCc2cnc(N3CCN(C4CCC4)CC3)nc2CC1 [Compound 210, 2-(4-cyclobutylpiperazin-1-yl)-7-(cyclopentylacetyl)-6,7,8,9-tetrahydro-5H-pyrimido[4,5-d]azepine]
O=C(CC1CCCCC1)N1CCc2cnc(N3CCN(C4CCC4)CC3)nc2CC1 [Compound 211, 2-(4-cyclobutylpiperazin-1-yl)-7-(cyclohexylacetyl)-6,7,8,9-tetrahydro-5H-pyrimido[4,5-d]azepine]
O=C(CCC1CCCC1)N1CCc2cnc(N3CCN(C4CCC4)CC3)nc2CC1 [Compound 212, 2-(4-cyclobutylpiperazin-1-yl)-7-(3-cyclopentylpropanoyl)-6,7,8,9-tetrahydro-5H-pyrimido[4,5-d]azepine]
O=C(Cc1ccccc1)N1CCc2cnc(N3CCN(C4CCC4)CC3)nc2CC1 [Compound 213, 2-(4-cyclobutylpiperazin-1-yl)-7-(phenylacetyl)-6,7,8,9-tetrahydro-5H-pyrimido[4,5-d]azepine]
COCCC(=O)N1CCc2cnc(N3CCN(C4CCC4)CC3)nc2CC1 [Compound 214, 2-(4-cyclobutylpiperazin-1-yl)-7-(3-methoxypropanoyl)-6,7,8,9-tetrahydro-5H-pyrimido[4,5-d]azepine]
O=C(C1CC1)N1CCc2cnc(N3CCN(C4CCC4)CC3)nc2CC1 [Compound 215, 2-(4-cyclobutylpiperazin-1-yl)-7-(cyclopropylcarbonyl)-6,7,8,9-tetrahydro-5H-pyrimido[4,5-d]azepine]

Same assay, conditions: symbol ! in Ki; test compound 4 μM, 1 μM histamine; read-out: percent inhibition of agonist-induced GTP-gammaS binding to H3

Inhibition at 4 µM, ≥ 90%:
Clc1ccc(CN2CCc3ncnc(N4CCN(C5CCC5)CC4)c3CC2)c(Cl)c1 [Compound 181, 4-(4-cyclobutylpiperazin-1-yl)-7-(2,4-dichlorobenzyl)-6,7,8,9-tetrahydro-5H-pyrimido[4,5-d]azepine]
c1nc2c(c(N3CCN(C4CCC4)CC3)n1)CCN(Cc1ccc(N3CCCC3)cc1)CC2 [Compound 182, 4-(4-cyclobutylpiperazin-1-yl)-7-(4-pyrrolidin-1-ylbenzyl)-6,7,8,9-tetrahydro-5H-pyrimido[4,5-d]azepine]
